From patent US20220220100A1 (SOLUTIA CANADA INC., priority 2019, published 2022)

Experiments:
Type in all cases: physicochemical
[1] = UV/Vis absorbance at 400 nm and Yellowness Index of the ring-open isomer; conditions: for Abs @ 400 nm, RO (Absorption of ring-open isomer at 400 nm): 2×10^−5 M solution, 1 cm pathlength cuvette
Procedure, shortened: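 Compound measured as a 2×10^−5 M solution in a 1 cm cuvette after photofading with visible light until visible absorption stabilized. Absorbance at 400 nm and Yellowness Index refer to this ring-open isomer.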

[2] = Photostationary state (PSS) and lambda max under simulated sunlight (solar simulator); conditions: for PSS (SS): absorbance at photostationary state, simulated sunlight (solar simulator), 2×10^−5 M solution; for λmax (nm): peak in the visible range, ring-closed (dark) state
Procedure, shortened: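 Compound at 2×10^−5 M in solvent was first photofaded with visible light until visible absorption stabilized, then irradiated with simulated sunlight (xenon-arc solar simulator) until the UV/Vis spectrum stabilized. A second sample was run the same way with a UV-blocking film in the light path.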

[3] = Solubility in Rhodiasolv IRIS solvent; conditions: Rhodiasolv IRIS (dimethyl-2-methyl glutarate); wt %
Text: A compound with greater solubility allows for a formulation or material with a greater concentration of coloured molecule to be incorporated into a composition. This may allow for increasing the contrast ratio for a compound with a lesser absorbance at PSS. Examples of solubilizing groups for the compound include alkoxy, ether, ester or siloxy groups. In various embodiments, compounds may be soluble in the solvent component at room temperature at about 6 wt %, 7 wt %, 8 wt %, 9 wt %, 10 wt % or greater for testing to determine whether a compound has application as an exterior glazing or optical filter. If the solubility of a compound in the solvent component is too low, then insufficient darkening may be achieved in the ring-closed configuration, depending on conditions of use for the compound.
Chromophore solutions in Rhodiasolv IRIS were prepared at 1 to 10 wt % loading. Solutions were prepared in a glovebox by charging the chromophore and Rhodiasolv IRIS to a trace-clean vial, and the solution was stirred on a hotplate at 90° C. for 2-24 hours. After cooling, the chromophore solution was injected into glass weathering cells and the fill and vent ports were sealed with a thin disc of Kalrez (FFKM Perfluorinated Elastomer) and secured with a clamp and set-screw. The weathering cells were filled and sealed inside the glove box.

[4] = Oxidation potential of ring-closed and ring-open isomers; conditions: no unit printed in table (V relative to Ag/AgCl)

SMILES	YI (Yellowness Index) [1]	Abs @ 400 nm, RO (Absorption of ring-open isomer at 400 nm) [1]	PSS (SS) [2]	λmax (nm) [2]	Solubility in Rhodiasolv IRIS [3]	RC [O] (oxidation potential of ring-closed isomer) [4]	RO [O] (oxidation potential of ring-open isomer) [4]
COCCCOc1cc2oc(-c3ccc(C(C)(C)C)cc3)c(C3=C(c4cc(-c5cc6c(s5)C(C)(C)CCC6(C)C)sc4-c4cc5c(s4)C(C)(C)CCC5(C)C)C(F)(F)C(F)(F)C3(F)F)c2cc1OCCCOC [Chromophore S388, 3-(2-(2,5-bis(4,4,7,7-tetramethyl-4,5,6,7-tetrahydrobenzo[b]thiophen-2-yl)thiophen-3-yl)-3,3,4,4,5,5-hexafluorocyclopent-1-en-1-yl)-2-(4-(tert-butyl)phenyl)-5,6-bis(3-methoxypropoxy)benzofuran]	6.3	0.132	0.38	600 nm	>10%	0.89	1.28
CC(C)(C)c1ccc(-c2oc3cc(OCCN4CCOC4=O)c(OCCN4CCOC4=O)cc3c2C2=C(c3cc(-c4cc5c(s4)C(C)(C)CCC5(C)C)sc3-c3cc4c(s3)C(C)(C)CCC4(C)C)C(F)(F)C(F)(F)C2(F)F)cc1 [Chromophore S390, 3,3′-(((3-(2-(2,5-bis(4,4,7,7-tetramethyl-4,5,6,7-tetrahydrobenzo[b]thiophen-2-yl)thiophen-3-yl)-3,3,4,4,5,5-hexafluorocyclopent-1-en-1-yl)-2-(4-(tert-butyl)phenyl)benzofuran-5,6-diyl)bis(oxy))bis(ethane-2,1-diyl))bis(oxazolidin-2-one)]	6.48	0.133	0.45	593 nm	>10%	0.93	1.29
CC(=O)Oc1cc2oc(-c3ccc(C(C)(C)C)cc3)c(C3=C(c4cc(-c5cc(C(C)(C)C)cs5)sc4-c4cc(C(C)(C)C)cs4)C(F)(F)C(F)(F)C3(F)F)c2cc1OC(C)=O [Chromophore S396, 2-(4-(tert-butyl)phenyl)-3-(2-(4,4″-di-tert-butyl-[2,2′:5′,2″-terthiophen]-3′-yl)-3,3,4,4,5,5-hexafluorocyclopent-1-en-1-yl)benzofuran-5,6-diyl diacetate]	2.78	0.08	0.278	578 nm	>3%	1.18	1.48
COc1ccc2oc(-c3ccc(C(C)(C)C)cc3)c(C3=C(c4cc(-c5cc6c(s5)C(C)(C)CCC6(C)C)sc4-c4cc5c(s4)C(C)(C)CCC5(C)C)C(F)(F)C(F)(F)C3(F)F)c2c1 [Chromophore S400]	6.67	0.125	0.306	592 nm	>3%	1.01	1.29
COc1cc2oc(-c3ccc(C(C)(C)C)cc3)c(C3=C(c4cc(-c5cc6c(s5)C(C)(C)CCCC6(C)C)sc4-c4cc5c(s4)C(C)(C)CCCC5(C)C)C(F)(F)C(F)(F)C3(F)F)c2cc1OC [Chromophore S405]	7.26	0.143	0.381	598 nm	>1%	0.91	1.28
